Measured values: ChEMBL document CHEMBL5614396, “Structure-Activity Relationship Studies in Benzothiadiazoles as Novel Vaccine Adjuvants” (J Med Chem, 2024)

How the values were obtained:
BMDC [1] = assay: Vaccine adjuvant activity in Balb/c mouse BMDC assessed as induction of Ca2+ influx at 10 uM by Fura-2/8-AM dye based fluorescence analysis (reference value: 0%); assay type: functional
BMDC [2] = assay: Vaccine adjuvant activity in Balb/c mouse BMDC assessed as increase in IL-12 production at 10 uM incubated for 20 hrs by ELISA (reference value: 1.35 +/-0.1 ng/ml); assay type: functional
THP-1 = assay: Vaccine adjuvant activity in human THP-1 cells expressing CD63-Turbo-luciferase and CD9-Emerald green fluorescent protein reporter assessed as extracellular vesicle release by measuring reporter activation at 10 uM incubated for 48 hrs by TurboLuc luciferase based chemiluminescence assay (reference value: 0%); assay type: functional
[3] = Cytotoxicity against Balb/c mouse BMDC assessed as cell viability at 10 uM incubated for 20 hrs by MTT assay (reference value: 100 +/-0.6%); assay type: toxicity, cell-based; conditions: BMDC (bone marrow-derived dendritic cells), read-out: Activity

Structure (SMILES) | Activity (BMDC [1]) | Activity (BMDC [2]) | Activity (THP-1) | viability at 20 h, 10 µM [3]
CCOC(=O)c1cc(C)ccc1NS(=O)(=O)c1cccc2nsnc12 | -11.5% | 1.22 ng/mL | 10.8% | 60.1%
Cc1cc(NS(=O)(=O)c2cccc3nsnc23)sc1C | -11.4% | 1.4 ng/mL | -0.9% | 113%
CCCOC(=O)c1c(NS(=O)(=O)c2cccc3nsnc23)sc(C)c1C | 147.4% | 3.5 ng/mL | 156.3% | 140%
CCOC(=O)c1c(NS(=O)(=O)c2cccc3nsnc23)sc2c1CCN(CC)C2 | -10.8% | 1.84 ng/mL | 1.3% | 108%
CCOC(=O)c1sc(C)c(C)c1NS(=O)(=O)c1cccc2nsnc12 | 74.2% | 1.67 ng/mL | 154.1% | 130%
CCOC(=O)c1c(NS(=O)(=O)c2ccc3nsnc3c2)sc(C)c1C | -12.7% | 0.63 ng/mL | 0.2% | 93.1%
CCOC(=O)c1ncsc1NS(=O)(=O)c1cccc2nsnc12 | -6.4% | 1.04 ng/mL | 1.3% | 91.3%
CCOC(=O)c1c(N(C)S(=O)(=O)c2cccc3nsnc23)sc(C)c1C | -39.3% | 1.19 ng/mL | -2% | 108%
CCOC(=O)c1c(NS(=O)(=O)c2cccc(N)c2N)sc(C)c1C | -6.8% | 1.39 ng/mL | 2.4% | 107%
CCOC(=O)c1c(NS(=O)(=O)c2cccc3nsnc23)sc2ccccc12 | 97% | 1.11 ng/mL | 98.3% | 99.1%
CCOC(=O)c1cc(C)sc1NS(=O)(=O)c1cccc2nsnc12 | 78.5% | 0.81 ng/mL | 106.9% | 93%
Cc1sc(NS(=O)(=O)c2cccc3nsnc23)c(C(=O)OC(C)C)c1C | 178.4% | 3 ng/mL | 149.2% | 132%
Cc1sc(NS(=O)(=O)c2cccc3nsnc23)c(C(=O)O)c1C | -31.3% | 1.43 ng/mL | -1.3% | 105%
CCOC(=O)c1c(NS(=O)(=O)c2cccc3nc(C)[nH]c23)sc(C)c1C | -13.1% | 1.42 ng/mL | 3.4% | 108%
CCOC(=O)c1c(NS(=O)(=O)c2cccc3nsnc23)sc2c1CCCC2 | 102.1% | 1.83 ng/mL | 156.9% | 114%
CCOC(=O)c1c(NS(=O)(=O)c2cccc3nsnc23)sc(C)c1-c1ccccc1 | 69.1% | 1.45 ng/mL | 49.6% | 94.2%
Cc1sc(NS(=O)(=O)c2cccc3nsnc23)c(C(=O)OCc2ccccc2)c1C | 175.5% | 2.74 ng/mL | 169.9% | 128%
Cc1sc(NS(=O)(=O)c2cccc3nsnc23)c(C(=O)OCCCCCNC(=O)OC(C)(C)C)c1C | 103.9% | 4.14 ng/mL | 111.5% | 183%
CCOC(=O)c1ccsc1NS(=O)(=O)c1cccc2nsnc12 | 58.3% | 0.48 ng/mL | 60.9% | 72.5%

Structure (SMILES) | Activity (BMDC [1]) | Activity (BMDC [2]) | Activity (THP-1) | viability at 20 h, 10 µM [3]
CCOC(=O)c1c(NS(=O)(=O)c2cccc3nsnc23)sc2c1CCN(C(=O)OC(C)(C)C)C2 | 79.2% | 2.27 ng/mL | 100.4% | 104%
CCc1noc(-c2c(NS(=O)(=O)c3cccc4nsnc34)sc(C)c2C)n1 | -3.1% | 1.71 ng/mL | 0.4% | 65.9%
CCOC(=O)c1nc(C)sc1NS(=O)(=O)c1cccc2nsnc12 | -7.9% | 0.92 ng/mL | 1.7% | 93.3%
CCOC(=O)c1c(NS(=O)(=O)c2ccc(Br)c3ccncc23)sc(C)c1C | -9.4% | 1.12 ng/mL | 16.1% | 82.7%
CCOC(=O)c1c(NS(=O)(=O)c2cccc3nc(O)[nH]c23)sc(C)c1C | -14.3% | 0.59 ng/mL | 0.4% | 88.1%
Cc1sc(NS(=O)(=O)c2cccc3nsnc23)c(C(=O)OC(C)(C)C)c1C | 136.7% | 3.17 ng/mL | 128.8% | 118%
CCOC(=O)c1c(NS(=O)(=O)c2cccc3nsnc23)sc(-c2ccoc2)c1C | 94.7% | 1.18 ng/mL | 114.4% | 82.8%
Cc1sc(NS(=O)(=O)c2cccc3nsnc23)c(C(=O)OCCC(C)C)c1C | 262.4% | 2.87 ng/mL | 141.6% | 81.2%
CCOC(=O)c1c(NS(=O)(=O)c2cccc3nc[nH]c23)sc(C)c1C | -14.2% | 1.51 ng/mL | 2% | 111%
CCNC(=O)c1c(NS(=O)(=O)c2cccc3nsnc23)sc(C)c1C | -28.3% | 1.7 ng/mL | -0.6% | 100%
CCOC(=O)c1c(NS(=O)(=O)c2cccc3nn[nH]c23)sc(C)c1C | -9.6% | 2.11 ng/mL | -0.7% | 102%
CCOC(=O)c1c(C)csc1NS(=O)(=O)c1cccc2nsnc12 | 76.7% | 1.12 ng/mL | 99% | 100%
CCOC(=O)c1c(NS(=O)(=O)c2cccc3nsnc23)sc(-c2cccs2)c1C | 100.6% | 1.03 ng/mL | 17.9% | 77%
Cc1sc(NS(=O)(=O)c2cccc3nsnc23)c(C(=O)Oc2ccccc2)c1C | 85.3% | 1.58 ng/mL | 39.8% | 107%
CCOC(=O)c1c(NS(=O)(=O)c2cccc3nsnc23)sc2c1CCNC2 | -35.3% | 0.72 ng/mL | 0.1% | 94.8%
CCOC(=O)c1c(NS(=O)(=O)c2cccc3nsnc23)sc(-c2ccccn2)c1C | 8.1% | 1.01 ng/mL | 30.5% | 68.1%
CCOC(=O)c1c(NS(=O)(=O)c2cccc3nsnc23)sc(-c2cccnc2)c1C | 11.8% | 1.05 ng/mL | 75.3% | 85.5%
Cc1sc(NS(=O)(=O)c2cccc3nsnc23)c(C(=O)OCCCCCN)c1C | -2.6% | 1.43 ng/mL | 0.7% | 103%
